From patent US5891882A, “Benzopyranopyrrole and benzopyranopyridine α-1 adenergic compounds” (priority 1997, dated 1999)
Where a name gives a salt, the structure may show the parent alone.

Tests used:
[1] = biological target: T1, α-1d adrenoreceptor (rat) (Rattus norvegicus, UniProt P23944); assay: In vitro [3H]-prazosin radioligand binding, cloned α-1d adrenoreceptor expressed in LTK cells
T1 construct: expressed in transfected cells; cDNA from TULCO; membranes
T1 sequence (P23944 1-561): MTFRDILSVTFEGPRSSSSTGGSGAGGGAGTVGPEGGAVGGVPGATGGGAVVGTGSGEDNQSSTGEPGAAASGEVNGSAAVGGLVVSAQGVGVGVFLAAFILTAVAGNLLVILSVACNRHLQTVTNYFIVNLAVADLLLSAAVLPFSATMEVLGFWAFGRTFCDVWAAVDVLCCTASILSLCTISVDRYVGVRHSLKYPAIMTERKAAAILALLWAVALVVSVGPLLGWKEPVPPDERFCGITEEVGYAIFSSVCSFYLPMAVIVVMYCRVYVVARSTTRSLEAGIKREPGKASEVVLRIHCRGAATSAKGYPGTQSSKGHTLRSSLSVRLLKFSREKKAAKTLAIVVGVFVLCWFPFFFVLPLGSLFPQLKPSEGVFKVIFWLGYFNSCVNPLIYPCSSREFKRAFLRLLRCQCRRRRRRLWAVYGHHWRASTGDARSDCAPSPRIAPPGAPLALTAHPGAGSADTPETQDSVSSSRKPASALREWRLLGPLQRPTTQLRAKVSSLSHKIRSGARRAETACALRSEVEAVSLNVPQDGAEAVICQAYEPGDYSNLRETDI
Protocol: (§1) Additionally, binding affinity against the pharmacologically defined α-1A adrenoreceptor (rat submaxillary gland) was measured.
(§2) The cDNA clones encoding the α-1 adrenoreceptors (α-1a, α-1b, and α-1d) were obtained from TULCO (Triangle Universities Licensing Consortium, Research Triangle Park, N.C.) and inserted into the eukaryotic expression vector SnaB30. In this vector, expression of the adrenoreceptor gene is under the transcriptional control of an SV40 early promoter. Positive drug selection is provided by a neomycin-resistance gene. Mouse fibroblast cells (LTK) were transfected with the α1 expression plasmids and grown in Dulbecco's modified Eagle's medium (DMEM) containing 10% fetal calf serum and […]. Stable G418-resistant parental lines were generated, with successful expression of adrenoreceptor protein monitored using radioligand binding techniques. Stable single cell clones derived from the parental lines were screened in adrenoreceptor binding assays to identify clones having high adrenoreceptor density. Roller bottle cultures of the cloned lines were used to provide cell membranes for subsequent adrenoreceptor binding characterization studies. A cell line containing the SnaB30 vector expressing the human erythropoietin gene served as a negative control.
(§3) For adrenoreceptor binding assays, large scale membrane preparations were utilized in which 6 million cells were seeded into small (450 cm^2) Corning tissue culture roller bottles. 200 mL of DMEM containing 10% fetal calf serum and 300 μM G418 were added to each roller bottle. A 95% air/5% CO2 gas mixture (sterile) was injected into each roller bottle prior to sealing. The bottles were then incubated at 37° C. on a roller rack for 5 days. Cells were re-fed with fresh medium after 3 days in culture.
(§4) On the fifth day of culture, growth medium was removed from cells grown in roller bottles, and the cells were washed twice with PBS (Sigma, 120 mM NaCl, 2.7 mM KCl, 10 mM Na2 HPO4 --NaH2 PO4, pH=7.4). Cells were detached from the roller bottles by incubating for 15 minutes at 37° C. in a Tris-EDTA solution (10 mM Tris, 100 mM NaCl, 1 mM EDTA, pH=7.4). The cell suspension from each roller bottle was decanted into tared centrifuge tubes and kept on ice. An aliquot of each cell suspension was generally taken for cell counting. Cells were centrifuged at 3000×G for 5 min at 2°-4° C., washed with PBS and recentrifuged. The supernatant was decanted and the pellet weighed to determine the wet weight of cells. Cells were washed a final time in 40 vol 5 mM Tris-HCl, 5 mM EDTA, pH=7.7, and centrifuged at 40,000×G for 10 minutes. Cells were homogenized in 10 mL of 50 mM Tris-HCl, 5 mM EDTA (pH=7.4) and diluted to 40 mL/tube. Homogenates were centrifuged at 40,000×G for 10 minutes. The supernatant was decanted and the pellets rehomogenized in 50 mM Tris-HCl (pH=7.4) and centrifuged as before. The supernatant was decanted and the homogenate resuspended in 6.25 volumes (per gram wet weight) of 50 mM Tris-HCl and aliquots of the pooled homogenates frozen in liquid N2 and stored at -70° C. until the time of assay. Rat submaxillary glands were used for α-1A adrenoreceptors and were prepared essentially as described (Michel, A. D., Loury, D. N. and Whiting, R. L., Brit. J. Pharmacol. 98: 83-889 (1989)).
(§5) Receptor binding assays for α-1 adrenoreceptors were performed essentially as described by Greengrass and Bremner (Eur. J. Pharmacol. 55: 323-326 (1979)). […] Radioactivity was determined by standard liquid scintillation techniques. Data were analyzed as previously described (Hancock, A. A., Kyncl, J. J., Martin, Y. C. and DeBernardis, J. F., J Receptor Res. 8: 23-46 (1988)).

[2] = biological target: T2, α-1A adrenoreceptor (rat submaxillary gland) (Rattus norvegicus, UniProt P43140); assay: In vitro [3H]-prazosin radioligand binding, pharmacologically defined α-1A adrenoreceptor (rat submaxillary gland)
T2 construct: Rat submaxillary glands were used for α-1A adrenoreceptors; from tissue; host or cells: rat submaxillary gland membranes
T2 sequence (P43140 1-466): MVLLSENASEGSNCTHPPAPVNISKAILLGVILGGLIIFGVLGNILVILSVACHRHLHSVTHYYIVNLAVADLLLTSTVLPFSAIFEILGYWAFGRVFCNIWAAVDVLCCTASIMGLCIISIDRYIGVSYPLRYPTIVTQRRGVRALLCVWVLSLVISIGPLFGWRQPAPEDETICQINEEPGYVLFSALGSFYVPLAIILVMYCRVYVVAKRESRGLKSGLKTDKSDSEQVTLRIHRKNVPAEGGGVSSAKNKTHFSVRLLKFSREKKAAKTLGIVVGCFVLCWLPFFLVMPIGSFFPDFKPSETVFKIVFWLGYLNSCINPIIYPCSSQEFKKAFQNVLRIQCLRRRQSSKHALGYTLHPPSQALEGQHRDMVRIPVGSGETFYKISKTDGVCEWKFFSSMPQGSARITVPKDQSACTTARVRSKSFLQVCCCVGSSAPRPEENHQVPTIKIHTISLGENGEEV
Protocol: as §1, §4, §5

[3] = biological target: T3, α-1b adrenoreceptor (hamster) (Mesocricetus auratus, UniProt P18841); assay: In vitro [3H]-prazosin radioligand binding, cloned α-1b adrenoreceptor expressed in LTK cells
T3 construct: expressed in transfected cells; cDNA from TULCO; membranes
T3 sequence (P18841 1-515): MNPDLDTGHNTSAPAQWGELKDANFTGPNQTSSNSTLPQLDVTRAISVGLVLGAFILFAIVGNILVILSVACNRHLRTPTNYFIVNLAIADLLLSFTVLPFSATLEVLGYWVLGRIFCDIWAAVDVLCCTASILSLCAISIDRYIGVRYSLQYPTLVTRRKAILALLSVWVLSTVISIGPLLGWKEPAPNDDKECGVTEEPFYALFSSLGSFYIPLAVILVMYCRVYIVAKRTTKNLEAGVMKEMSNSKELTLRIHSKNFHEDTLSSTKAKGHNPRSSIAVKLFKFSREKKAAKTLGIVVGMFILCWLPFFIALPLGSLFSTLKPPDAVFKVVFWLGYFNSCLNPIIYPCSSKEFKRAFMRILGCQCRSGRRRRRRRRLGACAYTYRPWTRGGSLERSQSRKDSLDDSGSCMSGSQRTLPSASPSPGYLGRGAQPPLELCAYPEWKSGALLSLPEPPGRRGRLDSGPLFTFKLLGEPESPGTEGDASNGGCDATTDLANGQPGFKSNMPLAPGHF
Description: as §2, §3, §4, §5

[4] = biological target: T4, α-1a adrenoreceptor (bovine) (Bos taurus, UniProt P18130); assay: In vitro [3H]-prazosin radioligand binding, cloned α-1a adrenoreceptor expressed in LTK cells
T4 construct: expressed in transfected cells; cDNA from TULCO; membranes
T4 sequence (P18130 1-466): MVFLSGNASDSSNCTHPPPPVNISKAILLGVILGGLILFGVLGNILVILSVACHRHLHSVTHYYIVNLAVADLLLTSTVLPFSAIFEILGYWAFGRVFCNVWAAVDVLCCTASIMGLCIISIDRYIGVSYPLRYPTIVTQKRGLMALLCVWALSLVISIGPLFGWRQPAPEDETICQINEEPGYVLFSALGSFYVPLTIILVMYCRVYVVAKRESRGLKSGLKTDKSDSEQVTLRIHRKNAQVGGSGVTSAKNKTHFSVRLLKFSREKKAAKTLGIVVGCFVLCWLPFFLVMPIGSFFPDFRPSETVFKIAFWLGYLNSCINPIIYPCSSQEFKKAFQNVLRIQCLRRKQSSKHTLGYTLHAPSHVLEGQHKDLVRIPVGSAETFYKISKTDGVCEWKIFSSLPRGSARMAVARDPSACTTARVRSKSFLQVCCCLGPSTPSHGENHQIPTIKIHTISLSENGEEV
Description: as §2, §3, §4, §5

[5] = biological target: T5, α-1A adrenoreceptor (rat vas deferens) (Rattus norvegicus, UniProt P43140); assay: Functional antagonism: inhibition of phenylephrine-induced contraction of rat vas deferens; format: cell-based; settings: rat vas deferens, phenylephrine-induced contraction, Schild plot
T5 construct: from tissue; host or cells: rat vas deferens
T5 sequence (P43140 1-466): T2 sequence (P43140 1-466)
Description: (§6) Functional assays indicative of pharmacologically defined α-1 adrenoreceptors were used to further characterize compounds. Inhibition of phenylephrine (PE)-induced contraction of canine prostate smooth muscle can be correlated with α-1A adrenoreceptor activation. […] For each of these models, agonist dose response curves were repeated against increasing concentrations of test agent to derive a Schild plot [log ([…]) against log (molarity of test agent)] to determine the pA2.

[6] = biological target: T6, α-1 Adrenoceptors (Rat Aorta) (Rattus norvegicus, UniProt P23944); assay: Functional antagonism at α-1 adrenoceptors, rat aorta; format: cell-based; settings: for Kb: read-out: In Vitro Characterization (pA2) Rat Aorta (converted)
T6 construct: Rat Aorta; from tissue; host or cells: rat aorta
T6 sequence (P23944 1-561): T1 sequence (P23944 1-561)
Description: as §6

α-1 adrenoreceptor = settings: cited from earlier work

Row | Structure (SMILES) | Ki [1] | Ki [2] | Ki [3] | Ki [4] | In Vitro Characterization (pA2) Rat Vas [5] | Kb [6] | In Vitro Characterization (pA2) Rat Aorta [6] | dose limiting side effects (α-1 adrenoreceptor; BPH treatment) | urinary flow rates and subjective symptom scores (α-1 adrenoreceptor; longer term studies, BPH) | clinical efficacy in BPH (α-1 adrenoreceptor; non-selective α-1 blockers)
1 | COc1cc2[nH]c(=O)n(CCCCN3CC[C@H]4c5c(OC)cccc5OC[C@@H]4C3)c(=O)c2cc1OC (relative stereo) [Example 86, 3-[4-((±)-trans-10-Methoxy-1,3,4,4a,5,10b-hexahydro-2H-[1]-benzopyrano[3,4-c]pyrido-3-yl)butyl]-6,7-dimethoxy-quinazoline-2,4(1H,3H)-dione hydrochloride] | 0.398 nM | 0.54 nM | 1.71 nM | 0.202 nM | – | – | – | – | – | –
2 | COc1cccc2c1[C@@H]1CN(CCCCn3c(=O)[nH]c4c(sc5cnccc54)c3=O)C[C@H]1CO2 [Example 42, hydrochloride] | – | – | – | – | 9.59 | 0.0389 nM | – | – | – | –
3 | COc1cccc2c1[C@@H]1CN(CCCCn3c(=O)[nH]c4c(sc5nc(C)ccc54)c3=O)C[C@H]1CO2 [Example 45, 3-[4-((3aS,9bR)-trans-9-Methoxy-1,2,3,3a,4,9b-hexahydro-[1]-benzopyrano[3,4-c]pyrrol-2-yl)butyl]-7-methyl-pyrido[3',2':4,5]thieno[3,2-d]pyrimidine-2,4(1H,3H)-dione hydrochloride] | – | – | – | – | 9.59 | 0.209 nM | – | – | – | –
4 | COc1cccc2c1[C@@H]1CCN(CCn3c(=O)[nH]c4c(sc5ccccc54)c3=O)C[C@H]1CO2 (relative stereo) [Example 90, 3-[2-((±)-trans-10-Methoxy-1,3,4,4a,5,10b-hexahydro-2H-[1]-benzopyrano[3,4-c]pyrido-3-yl)ethyl]-[1]-benzthieno[3,2-d]pyrimidine-2,4(1H,3H)-dione hydrochloride] | 0.439 nM | 0.323 nM | 2.29 nM | 0.135 nM | – | – | – | – | – | –
5 | COc1cccc2c1[C@@H]1CCN(CCCn3c(=O)[nH]c4c(sc5ncccc54)c3=O)C[C@H]1CO2 (relative stereo) [Example 84, 3-[3-(±)-trans-10-Methoxy-1,3,3,4a,5,10b-hexahydro-2H-[1]-benzopyrano[3,4-c]pyrido-3-yl)propyl]-pyrido[3',2':4,5]thieno[3,2-d]pyrimidine-2,4(1H,3H)-dione hydrochloride] | 1.12 nM | 0.479 nM | 4.92 nM | 0.617 nM | – | – | – | – | – | –
6 | COc1cc2nc(N3CCN(C(=O)C4CCCO4)CC3)nc(N)c2cc1OC (stereo not shown) [Terazosin, terazosin] | – | – | – | – | – | – | 8.65 | hypotension, dizziness, and muscle fatigue | significant improvements in urinary flow rates and subjective symptom scores | Clinical efficacy
7 | COc1cccc2c1[C@@H]1CCN(CCCn3c(=O)[nH]c4c(sc5ccccc54)c3=O)C[C@H]1CO2 (relative stereo) [Example 89, 3-[3-((±)-trans-10-Methoxy-1,3,4,4a,5,10b-hexahydro-2H-[1]-benzopyrano[3,4-c]pyrido-3-yl)propyl]-[1]-benzthieno[3,2-d]pyrimidine-2,4(1H,3H)-dione hydrochloride] | 0.061 nM | 0.133 nM | 0.111 nM | 0.038 nM | – | – | – | – | – | –
8 | COc1cc2[nH]c(=O)n(CCCCN3C[C@@H]4COc5cccc(OC)c5[C@H]4C3)c(=O)c2cc1OC (racemic) [Example 82, 3-[4-((±)-trans-9-Methoxy-1,2,3,3a,4,9b-hexahydro-[1]-benzopyrano[3,4-c]pyrrol-2-yl)butyl]-6,7-dimethoxy-quinazoline-2,4(1H,3H)-dione dihydrochloride] | 1.58 nM | 0.577 nM | 4.9 nM | 0.361 nM | – | – | – | – | – | –
